ChEMBL document CHEMBL1201861, “Genomics of Drug Sensitity in Cancer screening data, Wellcome Trust Sanger Institute”

Experiments:
Experiment in all cases: cells
[1] = tested on: J82; format: functional, cell-based; conditions: Homo sapiens;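 further: growth inhibition of J82 cells, read out with a cell viability assay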
Description: SANGER: Inhibition of human J82 cell growth in a cell viability assay.

[2] = tested on: LK-2; format: functional, cell-based, Homo sapiens; conditions: Homo sapiens, LK-2;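 further: growth inhibition of LK-2 cells, read out with a viability assay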
Description: SANGER: Inhibition of human LK-2 cell growth in a cell viability assay.

[3] = tested on: NCI-H1693; format: functional, cell-based, Homo sapiens; conditions: Homo sapiens, NCI-H1693;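 further: growth inhibition of the human cell line, read out with a cell viability assay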
Description: SANGER: Inhibition of human NCI-H1693 cell growth in a cell viability assay.

[4] = tested on: MDA-MB-361; format: functional, cell-based, Homo sapiens; conditions: Homo sapiens, MDA-MB-361
[5] = tested on: TE-6; format: functional, cell-based, Homo sapiens; conditions: Homo sapiens, TE-6;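 further: growth inhibition of TE-6 cells, read out with a cell viability assay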
Description: SANGER: Inhibition of human TE-6 cell growth in a cell viability assay.

[6] = tested on: LOX IMVI; format: functional, cell-based; conditions: Homo sapiens
Description: SANGER: Inhibition of human LOXIMVI cell growth in a cell viability assay.

[7] = tested on: HL-60; format: functional, cell-based; conditions: Homo sapiens;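 further: growth inhibition of human HL-60 cells, read out with a cell viability assay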
Description: SANGER: Inhibition of human HL-60 cell growth in a cell viability assay.

[8] = tested on: LC-2-ad; format: functional, cell-based, Homo sapiens; conditions: Homo sapiens, LC-2-ad;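 further: growth inhibition of human LC-2-ad cells, read out with a cell viability assay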
Description: SANGER: Inhibition of human LC-2-ad cell growth in a cell viability assay.

[9] = tested on: TYK-nu; format: functional, cell-based, Homo sapiens; conditions: Homo sapiens, TYK-nu;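 further: growth inhibition of human TYK-nu cells, read out by a cell viability assay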
Description: SANGER: Inhibition of human TYK-nu cell growth in a cell viability assay.

[10] = tested on: ONS-76; format: functional, cell-based, Homo sapiens; conditions: Homo sapiens, ONS-76;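 further: growth inhibition of human ONS-76 cells, read out with a cell viability assay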
Description: SANGER: Inhibition of human ONS-76 cell growth in a cell viability assay.

[11] = tested on: NCI-H1648; format: functional, cell-based, Homo sapiens; conditions: Homo sapiens, NCI-H1648;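 further: cell viability assay measuring inhibition of NCI-H1648 cell growth, from the Sanger screening data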
Description: SANGER: Inhibition of human NCI-H1648 cell growth in a cell viability assay.

[12] = tested on: NB5; format: functional, cell-based, Homo sapiens; conditions: Homo sapiens, NB5;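 further: growth inhibition of NB5 cells, read out as cell viability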
Description: SANGER: Inhibition of human NB5 cell growth in a cell viability assay.

[13] = tested on: EM-2; format: functional, cell-based; conditions: Homo sapiens;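 further: growth inhibition of EM-2 cells, read out with a cell viability assay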
Description: SANGER: Inhibition of human EM-2 cell growth in a cell viability assay.

[14] = tested on: ACHN; format: functional, cell-based, Homo sapiens; conditions: Homo sapiens, ACHN;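 further: cell viability read-out used to gauge how strongly growth of human ACHN cells is suppressed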
Description: SANGER: Inhibition of human ACHN cell growth in a cell viability assay.

[15] = tested on: A-375; format: functional, cell-based, Homo sapiens; conditions: Homo sapiens, A-375;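 further: growth inhibition of A375 cells, read out with a cell viability assay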
Description: SANGER: Inhibition of human A375 cell growth in a cell viability assay.

[16] = tested on: ALL-PO; format: functional, cell-based; conditions: Homo sapiens;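 further: growth inhibition of ALL-PO cells, read out by a cell viability assay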
Description: SANGER: Inhibition of human ALL-PO cell growth in a cell viability assay.

[17] = tested on: HGC-27; format: functional, cell-based, Homo sapiens; conditions: Homo sapiens, HGC-27;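 further: growth inhibition of human HGC-27 cells, read out in a cell viability assay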
Description: SANGER: Inhibition of human HGC-27 cell growth in a cell viability assay.

[18] = tested on: SCC-15; format: functional, cell-based, Homo sapiens; conditions: Homo sapiens, SCC-15;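 further: growth inhibition of SCC-15 cells, read out with a cell viability assay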
Description: SANGER: Inhibition of human SCC-15 cell growth in a cell viability assay.

[19] = tested on: MHH-PREB-1; format: functional, cell-based; conditions: Homo sapiens;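 further: cell viability assay measuring inhibition of proliferation of human MHH-PREB-1 cells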
Description: SANGER: Inhibition of human MHH-PREB-1 cell growth in a cell viability assay.

[20] = tested on: HN; format: functional, cell-based, Homo sapiens; conditions: Homo sapiens, HN
Description: SANGER: Inhibition of human HN cell growth in a cell viability assay.

[21] = tested on: HT-1376; format: functional, cell-based, Homo sapiens; conditions: Homo sapiens, HT-1376
Description: SANGER: Inhibition of human HT-1376 cell growth in a cell viability assay.

[22] = tested on: MZ7-mel; format: functional, cell-based, Homo sapiens; conditions: Homo sapiens, MZ7-mel;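 further: growth inhibition of human MZ7-mel cells, measured by a cell viability assay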
Description: SANGER: Inhibition of human MZ7-mel cell growth in a cell viability assay.

[23] = tested on: HuP-T3; format: functional, cell-based, Homo sapiens; conditions: Homo sapiens, HuP-T3;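 further: HuP-T3 cell growth inhibition, read out with a cell viability assay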
Description: SANGER: Inhibition of human HuP-T3 cell growth in a cell viability assay.

[24] = tested on: A388; format: functional, cell-based, Homo sapiens; conditions: Homo sapiens, A388;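 further: growth inhibition of human A388 cells, read out with a cell viability assay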
Description: SANGER: Inhibition of human A388 cell growth in a cell viability assay.

[25] = tested on: NTERA-2-cl-D1; format: functional, cell-based, Homo sapiens; conditions: Homo sapiens, NTERA-2-cl-D1;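 further: inhibition of cell growth, measured with a cell viability assay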
Description: SANGER: Inhibition of human NTERA-S-cl-D1 cell growth in a cell viability assay.

[26] = tested on: PFSK-1; format: functional, cell-based, Homo sapiens; conditions: Homo sapiens, PFSK-1;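 further: cell viability assay measuring how strongly compounds suppress growth of human PFSK-1 cells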
Description: SANGER: Inhibition of human PFSK-1 cell growth in a cell viability assay.

[27] = tested on: COLO-668; format: functional, cell-based, Homo sapiens; conditions: Homo sapiens, COLO-668
Description: SANGER: Inhibition of human COLO-668 cell growth in a cell viability assay.

[28] = tested on: ES6; format: functional, cell-based, Homo sapiens; conditions: Homo sapiens, ES6;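 further: growth inhibition of human ES6 cells, read out with a cell viability assay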
Description: SANGER: Inhibition of human ES6 cell growth in a cell viability assay.

[29] = tested on: AGS; format: functional, cell-based, Homo sapiens; conditions: Homo sapiens, AGS;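 further: growth inhibition of AGS cells, determined with a cell viability assay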
Description: SANGER: Inhibition of human AGS cell growth in a cell viability assay.

[30] = tested on: RCM-1; format: functional, cell-based, Homo sapiens; conditions: Homo sapiens, RCM-1;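 further: growth inhibition of the RCM-1 line, determined with a cell viability readout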
Description: SANGER: Inhibition of human RCM-1 cell growth in a cell viability assay.

[31] = tested on: JVM-2; format: functional, cell-based; conditions: Homo sapiens;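 further: growth inhibition of JVM-2 cells determined by a cell viability assay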
Description: SANGER: Inhibition of human JVM-2 cell growth in a cell viability assay.

[32] = tested on: SW 954; format: functional, cell-based, Homo sapiens; conditions: Homo sapiens, SW 954;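 further: growth inhibition of SW954 human cancer cells, read out as cell viability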
Description: SANGER: Inhibition of human SW954 cell growth in a cell viability assay.

[33] = tested on: MZ2-MEL; format: functional, cell-based, Homo sapiens; conditions: Homo sapiens, MZ2-MEL;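 further: growth inhibition of MZ2-MEL cells read out with a cell viability assay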
Description: SANGER: Inhibition of human MZ2-MEL cell growth in a cell viability assay.

[34] = tested on: EW-13; format: functional, cell-based; conditions: Homo sapiens;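 further: growth inhibition of EW-13 cells, read out with a cell viability assay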
Description: SANGER: Inhibition of human EW-13 cell growth in a cell viability assay.

[35] = tested on: HCC70; format: functional, cell-based, Homo sapiens; conditions: Homo sapiens, HCC70;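 further: cell viability assay measuring how strongly the compound suppresses proliferation of HCC70 cells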
Description: SANGER: Inhibition of human HCC70 cell growth in a cell viability assay.

[36] = tested on: ChaGo-K-1; format: functional, cell-based; conditions: Homo sapiens;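 further: growth inhibition of ChaGo-K-1 cells, read out with a cell viability assay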
Description: SANGER: Inhibition of human ChaGo-K-1 cell growth in a cell viability assay.

[37] = tested on: SW1990; format: functional, cell-based, Homo sapiens; conditions: Homo sapiens, SW1990;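 further: cell growth inhibition determined with a viability assay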
Description: SANGER: Inhibition of human SW1990 cell growth in a cell viability assay.

[38] = tested on: NCI-H1623; format: functional, cell-based, Homo sapiens; conditions: Homo sapiens, NCI-H1623;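 further: cell viability assay used as the read-out for growth inhibition of NCI-H1623 cells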
Description: SANGER: Inhibition of human NCI-H1623 cell growth in a cell viability assay.

[39] = tested on: TE-8; format: functional, cell-based, Homo sapiens; conditions: Homo sapiens, TE-8;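 further: growth inhibition of TE-8 cells, measured with a cell viability readout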
Description: SANGER: Inhibition of human TE-8 cell growth in a cell viability assay.

[40] = tested on: SW1417; format: functional, cell-based, Homo sapiens; conditions: Homo sapiens, SW1417;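 further: growth inhibition of human SW1417 cells, read out with a cell viability assay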
Description: SANGER: Inhibition of human SW1417 cell growth in a cell viability assay.

[41] = tested on: BV-173; format: functional, cell-based; conditions: Homo sapiens
Description: SANGER: Inhibition of human BV-173 cell growth in a cell viability assay.

[42] = tested on: 8-MG-BA; format: functional, cell-based, Homo sapiens; conditions: Homo sapiens, 8-MG-BA;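 further: growth inhibition of 8-MG-BA cells, read out with a cell viability assay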
Description: SANGER: Inhibition of human 8-MG-BA cell growth in a cell viability assay.

[43] = tested on: DU-4475; format: functional, cell-based; conditions: Homo sapiens
Description: SANGER: Inhibition of human DU-4475 cell growth in a cell viability assay.

[44] = tested on: MKN-7; format: functional, cell-based, Homo sapiens; conditions: Homo sapiens, MKN-7;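 further: growth inhibition of MKN-7 cells, read out with a cell viability assay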
Description: SANGER: Inhibition of human MKN7 cell growth in a cell viability assay.

[45] = tested on: CAMA-1; format: functional, cell-based, Homo sapiens; conditions: Homo sapiens, CAMA-1;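 further: growth inhibition of CAMA-1 cells, read out with a cell viability assay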
Description: SANGER: Inhibition of human CAMA-1 cell growth in a cell viability assay.

[46] = tested on: LS-411N; format: functional, cell-based, Homo sapiens; conditions: Homo sapiens, LS-411N
[47] = tested on: HuP-T4; format: functional, cell-based, Homo sapiens; conditions: Homo sapiens, HuP-T4;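 further: cell viability assay measuring how much HuP-T4 cell growth is inhibited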
Description: SANGER: Inhibition of human HuP-T4 cell growth in a cell viability assay.

[48] = tested on: DOHH-2; format: functional, cell-based; conditions: Homo sapiens;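 further: growth inhibition of human DOHH-2 cells, read out with a cell viability assay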
Description: SANGER: Inhibition of human DOHH-2 cell growth in a cell viability assay.

[49] = tested on: KY821; format: functional, cell-based; conditions: Homo sapiens;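 further: growth inhibition of human KY821 cells, read out by a cell viability assay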
Description: SANGER: Inhibition of human KY821 cell growth in a cell viability assay.

[50] = tested on: SW-620; format: functional, cell-based, Homo sapiens; conditions: Homo sapiens, SW-620;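 further: growth inhibition of human SW-620 cells, measured by a cell viability assay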
Description: SANGER: Inhibition of human SW620 cell growth in a cell viability assay.

[51] = tested on: CGTH-W-1; format: functional, cell-based, Homo sapiens; conditions: Homo sapiens, CGTH-W-1;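 further: growth inhibition of human CGTH-W-1 cells measured by cell viability assay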
Description: SANGER: Inhibition of human CGTH-W-1 cell growth in a cell viability assay.

[52] = tested on: VMRC-RCZ; format: functional, cell-based; conditions: Homo sapiens;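 further: growth inhibition measured with a cell viability assay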
Description: SANGER: Inhibition of human VMRC-RCZ cell growth in a cell viability assay.

[53] = tested on: DMS-79; format: functional, cell-based; conditions: Homo sapiens;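 further: growth inhibition measured with a cell viability assay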
Description: SANGER: Inhibition of human DMS-79 cell growth in a cell viability assay.

## Cn1cncc1[C@@](N)(c1ccc(Cl)cc1)c1ccc2c(c1)c(-c1cccc(Cl)c1)cc(=O)n2C [TIPIFARNIB]
[1]
  IC50: 4180 nM
[2]
  IC50: 1060 nM
[3]
  IC50: > 16000 nM
[4]
  IC50: 2110 nM
[5]
  IC50: 7210 nM
[6]
  IC50: > 16000 nM
[7]
  IC50: 6930 nM
[8]
  IC50: 1490 nM
[9]
  IC50: > 16000 nM
[10]
  IC50: 1470 nM
[11]
  IC50: 2560 nM
[12]
  IC50: > 16000 nM
[13]
  IC50: > 16000 nM
[14]
  IC50: 1120 nM
[15]
  IC50: 616 nM
[16]
  IC50: 555 nM
[17]
  IC50: 1320 nM
[18]
  IC50: 10800 nM
[19]
  IC50: 3300 nM
[20]
  IC50: > 16000 nM
[21]
  IC50: 11600 nM
[22]
  IC50: 722 nM
[23]
  IC50: > 16000 nM
[24]
  IC50: 865 nM
[25]
  IC50: 237 nM
[26]
  IC50: > 16000 nM
[27]
  IC50: 3390 nM
[28]
  IC50: 539 nM
[29]
  IC50: 4530 nM
[30]
  IC50: > 16000 nM
[31]
  IC50: > 16000 nM
[32]
  IC50: 2900 nM
[33]
  IC50: 1900 nM
[34]
  IC50: 6480 nM
[35]
  IC50: 1050 nM
[36]
  IC50: 1750 nM
[37]
  IC50: 12400 nM
[38]
  IC50: > 16000 nM
[39]
  IC50: 928 nM
[40]
  IC50: > 16000 nM
[41]
  IC50: 2380 nM
[42]
  IC50: 2130 nM
[43]
  IC50: 2190 nM
[44]
  IC50: > 16000 nM
[45]
  IC50: > 16000 nM
[46]
  IC50: 1100 nM
[47]
  IC50: 3030 nM
[48]
  IC50: 7910 nM
[49]
  IC50: > 16000 nM
[50]
  IC50: 482 nM
[51]
  IC50: 5010 nM
[52]
  IC50: 3180 nM
[53]
  IC50: > 16000 nM

## Nc1ccn([C@@H]2O[C@H](CO)[C@@H](O)[C@@H]2O)c(=O)n1 [CYTARABINE]
[1]
  IC50: 1620 nM
[2]
  IC50: 461 nM
[3]
  IC50: > 2000 nM
[4]
  IC50: > 2000 nM
[5]
  IC50: > 2000 nM
[6]
  IC50: 290 nM
[7]
  IC50: > 2000 nM
[8]
  IC50: 230 nM
[9]
  IC50: 661 nM
[10]
  IC50: 390 nM
[11]
  IC50: > 2000 nM
[12]
  IC50: 452 nM
[13]
  IC50: 211 nM
[14]
  IC50: 370 nM
[15]
  IC50: 396 nM
[16]
  IC50: 287 nM
[17]
  IC50: 455 nM
[18]
  IC50: 1080 nM
[19]
  IC50: 533 nM
[20]
  IC50: 221 nM
[21]
  IC50: 1680 nM
[22]
  IC50: 417 nM
[23]
  IC50: 856 nM
[24]
  IC50: 740 nM
[25]
  IC50: 159 nM
[26]
  IC50: > 2000 nM
[27]
  IC50: 809 nM
[28]
  IC50: 721 nM
[29]
  IC50: 918 nM
[30]
  IC50: > 2000 nM
[31]
  IC50: > 2000 nM
[32]
  IC50: > 2000 nM
[33]
  IC50: 1430 nM
[34]
  IC50: 1980 nM
[35]
  IC50: > 2000 nM
[36]
  IC50: > 2000 nM
[37]
  IC50: > 2000 nM
[38]
  IC50: 536 nM
[39]
  IC50: 219 nM
[40]
  IC50: > 2000 nM
[41]
  IC50: 516 nM
[42]
  IC50: 341 nM
[43]
  IC50: 575 nM
[44]
  IC50: > 2000 nM
[45]
  IC50: > 2000 nM
[46]
  IC50: 695 nM
[47]
  IC50: 237 nM
[48]
  IC50: 1380 nM
[49]
  IC50: > 2000 nM
[50]
  IC50: 349 nM
[51]
  IC50: 182 nM
[52]
  IC50: 1350 nM
[53]
  IC50: > 2000 nM

## Cn1cc(C2=C(c3ccc(Cl)cc3Cl)C(=O)NC2=O)c2ccccc21 [SB-216763]
[1]
  IC50: > 10000 nM
[2]
  IC50: > 10000 nM
[3]
  IC50: > 10000 nM
[4]
  IC50: > 10000 nM
[5]
  IC50: > 10000 nM
[6]
  IC50: > 10000 nM
[7]
  IC50: > 10000 nM
[8]
  IC50: > 10000 nM
[9]
  IC50: > 10000 nM
[10]
  IC50: > 10000 nM
[11]
  IC50: > 10000 nM
[12]
  IC50: > 10000 nM
[13]
  IC50: > 10000 nM
[14]
  IC50: > 10000 nM
[15]
  IC50: > 10000 nM
[16]
  IC50: > 10000 nM
[17]
  IC50: > 10000 nM
[18]
  IC50: > 10000 nM
[19]
  IC50: > 10000 nM
[20]
  IC50: > 10000 nM
[21]
  IC50: > 10000 nM
[22]
  IC50: > 10000 nM
[23]
  IC50: > 10000 nM
[24]
  IC50: > 10000 nM
[25]
  IC50: > 10000 nM
[26]
  IC50: > 10000 nM
[27]
  IC50: > 10000 nM
[28]
  IC50: > 10000 nM
[29]
  IC50: > 10000 nM
[30]
  IC50: > 10000 nM
[31]
  IC50: > 10000 nM
[32]
  IC50: > 10000 nM
[33]
  IC50: > 10000 nM
[34]
  IC50: > 10000 nM
[35]
  IC50: > 10000 nM
[36]
  IC50: > 10000 nM
[37]
  IC50: > 10000 nM
[38]
  IC50: > 10000 nM
[39]
  IC50: > 10000 nM
[40]
  IC50: > 10000 nM
[41]
  IC50: > 10000 nM
[42]
  IC50: > 10000 nM
[44]
  IC50: > 10000 nM
[45]
  IC50: > 10000 nM
[46]
  IC50: > 10000 nM
[47]
  IC50: > 10000 nM
[48]
  IC50: > 10000 nM
[50]
  IC50: > 10000 nM
[51]
  IC50: > 10000 nM
[52]
  IC50: > 10000 nM
[53]
  IC50: > 10000 nM
